Data published in US20250144067A1, “PERSONALIZED STARVATION THERAPY FOR CANCER” (Faeth Therapeutics, Inc., priority 2021, published 2025).
Where a name gives a salt, the structure may show the parent alone. Read-outs that look alike come from different tables or passages of the source.

Legend:
[1] = system: NCI-H292 lung cancer cells; experiment: FDA drug screening, complete media vs cholesterol-free media with simvastatin (TABLE 2); assay type: cell-based, human
[2] = system: NCI-H292 lung cancer cells; experiment: FDA drug screening, complete media vs cholesterol-free media without statin (TABLE 1); assay type: cell-based, human
[3] = NCI-H292 cells, FDA library drug in cholesterol-free media with simvastatin 0.04 μM
[4] = NCI-H292 cells, FDA library drug in complete media
[5] = complete media vs cholesterol-free media + simvastatin (0.04 μM), >0 enhanced anti-cancer activity, about 0 neutral, <0 antagonist
[6] = NCI-H292 cells, cholesterol-free media without statin
[7] = complete vs cholesterol-free media, greater than 0 enhanced anti-cancer activity, about 0 neutral, below 0 antagonists
[8] = NCI-H292 cells, drug in cholesterol-free media with simvastatin 0.04 μM
[9] = NCI-H292 cells, drug in complete media
[10] = NCI-H292 cells, FDA drug library screen, cholesterol-free media without statin
[11] = NCI-H292 cells, FDA drug library screen, cholesterol-free media with simvastatin 0.04 μM
[12] = NCI-H292 cells, FDA drug library screen, complete media
[13] = complete media minus cholesterol-free media + simvastatin, >0 enhanced anti-cancer activity, about 0 neutral, <0 antagonist
[14] = Complete minus Cholesterol-free, >0 enhanced anti-cancer activity, about 0 neutral, <0 antagonist
[15] = Complete minus Cholesterol-free, greater than 0 enhanced anti-cancer activity, about 0 neutral, below 0 antagonists
[16] = NCI-H292 cells in cholesterol-free media without statin
[17] = NCI-H292 cells in complete media
[18] = NCI-H292 cells, cholesterol-free media without statin, FDA drug library screen
[19] = NCI-H292 cells, complete media, FDA drug library screen
[20] = NCI-H292 cells, cholesterol-free media with simvastatin 0.04 μM, FDA drug library screen (TABLE 2)
[21] = NCI-H292 cells, complete media, FDA drug library screen (TABLE 2)
[22] = complete media minus cholesterol-free media + simvastatin (0.04 μM), >0 enhanced anti-cancer activity, about 0 neutral, <0 antagonist

For `C#CC1(O)CC[C@H]2[C@@H]3CCC4=CC(=O)CC[C@@H]4[C@H]3CC[C@@]21CC` (some centres unmarked) [Norgestrel], the “Cholesterol-free media + simvastatin (0.04 μM)” value [1, 3] was 1.456, the “Complete Media” value [1, 4] was 1.004 and the Difference [1, 5] was −0.45. For the same compound, the Cholesterol-free [2, 6] was 1.349, the Complete ([2]; NCI-H292 cells, complete media) was 1.022 and the Difference [2, 7] was −0.33.

With `CNCCC=C1c2ccccc2CCc2ccccc21` [Nortriptyline (hydrochloride)] the “Cholesterol-free media + simvastatin (0.04 μM)” value [1, 8] was 1.16, the “Complete Media” value [1, 9] was 0.9078 and the Difference [1, 5] was −0.25. It also gave a Cholesterol-free [2, 6] of 1.336, a Complete ([2]; NCI-H292 cells, complete media) of 1.01 and a Difference [2, 7] of −0.33.

`CC(C)C[C@@H](N)C(=O)N[C@H]1C(=O)N[C@@H](CC(N)=O)C(=O)N[C@H]2C(=O)N[C@H]3C(=O)N[C@H](C(=O)N[C@H](C(=O)O)c4cc(O)cc(O)c4-c4cc3ccc4O)[C@H](O)c3ccc(c(Cl)c3)Oc3cc2cc(c3O[C@@H]2O[C@H](CO)[C@@H](O)[C@H](O)[C@H]2O[C@H]2C[C@](C)(N)[C@H](O)[C@H](C)O2)Oc2ccc(cc2Cl)[C@H]1O.Cl` [Norvancomycin (hydrochloride)] was tested, and the “Cholesterol-free media + simvastatin (0.04 μM)” value [1, 3] was 1.335, the “Complete Media” value [1, 4] was 0.8954 and the Difference ([1]; complete media vs cholesterol-free media + simvastatin (0.04 μM), […]) was −0.44. The Difference ([2]; Complete minus Cholesterol-free, […]) was −0.07 and the Cholesterol-free [2, 10] was 1.244.

In the case of `COc1ccc2c(c1OC)C(=O)O[C@@H]2[C@H]1c2c(cc3c(c2OC)OCO3)CCN1C` [Noscapine], the “Cholesterol-free media + simvastatin (0.04 μM)” value [1, 11] is reported as 0.7586, the “Complete Media” value [1, 12] is reported as 1.21 and the Difference [1, 13] is reported as 0.45. The Difference [2, 14] was −0.20, the Cholesterol-free [2, 6] was 1.288 and the Complete ([2]; NCI-H292 cells, complete media) was 1.088.

With `CO[C@@H]1[C@@H](OC(N)=O)[C@@H](O)[C@H](Oc2ccc3c(O)c(NC(=O)c4ccc(O)c(CC=C(C)C)c4)c(=O)oc3c2C)OC1(C)C` [Novobiocin (Sodium)] the “Cholesterol-free media + simvastatin (0.04 μM)” value [1, 11] was 1.139, the “Complete Media” value [1, 12] was 1.056 and the Difference [1, 5] was −0.08. The Difference ([2]; Complete minus Cholesterol-free, greater than 0 enhanced anti-cancer activity, about 0 neutral, below 0 antagonist) was −0.12, the Cholesterol-free [2, 10] was 1.193 and the Complete [2, 12] was 1.072.

For `CC(CCc1ccccc1)NC(C)C(O)c1ccc(O)cc1` (centres unmarked) [Nylidrin (hydrochloride)], the “Cholesterol-free media + simvastatin (0.04 μM)” value [1, 11] was 0.6926, the “Complete Media” value [1, 12] was 0.8576 and the Difference [1, 13] was 0.17. For the same compound, the Difference [2, 15] was −0.53, the Cholesterol-free [2, 16] was 1.455 and the Complete [2, 17] was 0.9273.

For `CC[C@H]1[C@@H](O)[C@@H]2[C@H](CC[C@]3(C)[C@@H]([C@H](C)CCC(=O)O)CC[C@@H]23)[C@@]2(C)CC[C@@H](O)C[C@@H]12` [Obeticholic acid], the “Cholesterol-free media + simvastatin (0.04 μM)” value [1, 11] was 1.258, the “Complete Media” value [1, 12] was 1.13 and the Difference [1, 5] was −0.13. The Cholesterol-free [2, 18] was 0.5907, the Complete [2, 19] was 0.9124 and the Difference ([2]; complete vs cholesterol-free media, >0 enhanced anti-cancer activity, about 0 neutral, <0 antagonist) was 0.32.

With `CCCCCCCCN=c1ccn(CCCCCCCCCCn2ccc(=NCCCCCCCC)cc2)cc1` [Octenidine (dihydrochloride)] the “Cholesterol-free media + simvastatin (0.04 μM)” value [1, 20] was −0.0001133, the “Complete Media” value [1, 21] was −0.0003925 and the Difference [1, 22] was 0.00. The Difference [2, 14] was 0.01, the Cholesterol-free [2, 18] was 0.00456 and the Complete [2, 19] was 0.01483.

In the case of `CCCCC(CC)COC(=O)c1ccccc1O` (centres unmarked) [Octisalate], the “Cholesterol-free media + simvastatin (0.04 μM)” value [1, 11] is reported as 0.992, the “Complete Media” value [1, 12] is reported as 0.8834 and the Difference [1, 5] is reported as −0.11. It also gave a Difference [2, 14] of −0.04, a Cholesterol-free [2, 18] of 2.188 and a Complete [2, 19] of 2.15.

`CCCCC(CC)COC(=O)C(C#N)=C(c1ccccc1)c1ccccc1` (centres unmarked) [Octocrylene] was tested, and the “Cholesterol-free media + simvastatin (0.04 μM)” value [1, 11] was 1.183, the “Complete Media” value [1, 12] was 1.029 and the Difference [1, 5] was −0.15. The Difference [2, 15] was −0.58, the Cholesterol-free [2, 16] was 1.541 and the Complete [2, 17] was 0.9621.

In the case of `CC1COc2c(N3CCN(C)CC3)c(F)cc3c(=O)c(C(=O)O)cn1c23` (centres unmarked) [Ofloxacin], the “Cholesterol-free media + simvastatin (0.04 μM)” value [1, 8] is reported as 1.154, the “Complete Media” value [1, 9] is reported as 0.9389 and the Difference [1, 5] is reported as −0.22. The Cholesterol-free [2, 6] was 1.221, the Complete ([2]; NCI-H292 cells, complete media) was 0.8562 and the Difference [2, 7] was −0.36.

For `Cc1cc2c(s1)Nc1ccccc1N=C2N1CCN(C)CC1` [Olanzapine], the “Cholesterol-free media + simvastatin (0.04 μM)” value [1] was 1.722, the “Complete Media” value [1] was 1.489 and the Difference [1] was −0.23. It also gave a Cholesterol-free [2] of 0.9635, a Complete [2] of 0.9217 and a Difference [2] of −0.04.

In the case of `O=C(c1cc(Cc2n[nH]c(=O)c3ccccc23)ccc1F)N1CCN(C(=O)C2CC2)CC1` [Olaparib], the “Cholesterol-free media + simvastatin (0.04 μM)” value [1, 20] is reported as 0.8331, the “Complete Media” value [1, 21] is reported as 0.8347 and the Difference [1, 22] is reported as 0.00. The Difference [2, 15] was −0.72, the Cholesterol-free [2, 16] was 1.436 and the Complete [2, 17] was 0.7169.

`CC1(C)CC[C@]2(C(=O)O)CC[C@]3(C)C(=CC[C@@H]4[C@@]5(C)CC[C@H](O)C(C)(C)[C@@H]5CC[C@]43C)[C@@H]2C1` [Oleanolic Acid] was tested, and the “Cholesterol-free media + simvastatin (0.04 μM)” value [1, 11] was 1.063, the “Complete Media” value [1, 12] was 1.721 and the Difference [1, 13] was 0.66. The Difference [2, 14] was −0.19, the Cholesterol-free [2, 6] was 1.001 and the Complete ([2]; NCI-H292 cells, complete media) was 0.8111.
